Data on five molecules can be found in patent US20130224110A1, “USE OF ADENOSINE RECEPTOR SIGNALING TO MODULATE PERMEABILITY OF BLOOD-BRAIN BARRIER” (CORNELL UNIVERSITY, priority 2010, published 2013).

One data set concerns EAE. Nature of the data set: EAE induction and scoring (MOG35-55/CFA/PTX). The format is in vivo, mice. An excerpt:
Cd73^−/− mice have been previously described (Thompson et al., “Crucial Role for Ecto-5′-Nucleotidase (CD73) in Vascular Leakage During Hypoxia,” J. Exp. Med. 200:1395-1405 (2004), which is hereby incorporated by reference in its entirety) and have been backcrossed to C57BL/6 for 14 generations. Cd73^−/− mice have no overt susceptibility to infection and appear normal based on the size and cellular composition of their lymphoid organs and their T and B cell responses in in vivo and in vitro assays (Thompson et al., “Crucial Role for Ecto-5′-Nucleotidase (CD73) in Vascular Leakage During Hypoxia,” J. Exp. Med. 200:1395-1405 (2004), which is hereby incorporated by reference in its entirety). C57BL/6 and tcrα^−/− mice on the C57BL/6 background were purchased from The Jackson Laboratories. Mice were bred and housed under specific pathogen-free conditions at Cornell University or the University of Turku. For adenosine receptor blockade experiments, mice were given drinking water supplemented with 0.6 g/L of caffeine (Sigma) or 2 mg/kg SCH58261 (1 mg/kg s.c. and 1 mg/kg i.p.) in DMSO (45% vol. in PBS) or 45% DMSO alone starting 1 day before EAE induction and continuing throughout the experiment. All procedures performed on mice were approved by the relevant animal review committee.
EAE was induced by subjecting mice to the myelin oligodendrocyte glycoprotein (“MOG”) EAE-inducing regimen as described in Swanborg, “Experimental Autoimmune Encephalomyelitis in Rodents as a Model for Human Demyelinating Disease,” Clin. Immunol. Immunopathol. 77:4-13 (1995) and Bynoe et al., “Epicutaneous Immunization with Autoantigenic Peptides Induces T Suppressor Cells that Prevent Experimental Allergic Encephalomyelitis,” Immunity 19:317-328 (2003), which are hereby incorporated by reference in their entirety. […] Mice were scored daily for EAE based on disease symptom severity; 0=no disease, 0.5-1=weak/limp tail, 2=limp tail and partial hind limb paralysis, 3=total hind limb paralysis, 4=both hind limb and fore limb paralysis, 5=death. […]
As CD73 catalyzes the breakdown of AMP to adenosine and ARs are expressed in the CNS (Tsutsui et al., “A1 Adenosine Receptor Upregulation and Activation Attenuates Neuroinflammation and Demyelination in a Model of Multiple Sclerosis,” J. Neurosci. 24:1521-1529 (2004)); Rosi et al., The Influence of Brain Inflammation Upon Neuronal Adenosine A2B Receptors,” J. Neurochem. 86:220-227 (2003), which are hereby incorporated by reference in their entirety), it was next determined if AR signaling is important during EAE progression. […] Since CD73 is highly expressed on the choroid plexus (FIG. 6C), it was next determined if ARs are also expressed on the choroid plexus. […]

The next data set relates to blood brain barrier. Nature of the data set: Fluorescently labeled dextran extravasation into mouse brain (fluorimetry). The following applies: wild type mice, 10,000 Da FITC-dextran, i.v., 3 h, vs vehicle. The format is in vivo, mice. How it is done:
The adenosine receptor agonists NECA, CCPA, CGS 21860, and SCH 58261 (Tocris, Ellisville, Mo.) were each dissolved in DMSO then diluted in PBS to the desired concentration; in most cases final DMSO concentrations were <0.5% (vol/vol). Lexiscan (Regadenoson; TRC, Inc., Toronto) was dissolved in PBS. For vehicle controls, DMSO was diluted in PBS to the same concentration. Dehydrated dextrans labeled with either FITC or Texas Red (Invitrogen, Carlsbad, Calif.) were re-suspended in PBS to 10 mg/ml. All experiments involving dextran injection used 1.0 mg dextran in PBS. In experiments where drug and dextran were injected concomitantly, 1.0 mg of dextran was mixed with the drug to the desired concentration in a final volume of 200 μl. In dose-response experiments, drugs and dextrans were injected concomitantly. All injections, except injections of SCH 58261, were retro-orbital i.v. with a 27-gauge needle. In the SCH 58261 experiment, SCH 58261 injections, 1 mg/kg, were intraperitoneal and mice were pre-dosed with this concentration daily for 4 days prior to the day of the experiment. An additional injection was administered at the time of the experiment. Vehicle/drug and dextrans were injected on day 5 and tissues were collected 3 h after vehicle/drug administration. In Lexiscan experiments, Lexiscan was administered i.v. with 3 injections, 5 min apart and tissues were collected at 15 min unless otherwise indicated.
In dose-response experiments and experiments with the A1 AR and A2A AR knock-out mice, drugs and dextrans were injected concomitantly. After 3 h, the mice were anesthetized with ketamine/xylazine and subjected to a nose cone containing isoflurane. They were perfused with 25-50 ml ice-cold PBS through the left ventricle of the heart then decapitated. Their brains were removed, weighed and frozen for later analysis.
Ice-cold 50 mMTris-Cl (pH 7.6) was added to frozen brains (100 μl per 100 mg brain) and were to thawed on ice. They were homogenized with a dounce homogenizer and centrifuged at […] in a microfuge for 30 min at room temperature (rt). The supernatants were transferred to new tubes and an equal volume absolute methanol was added. The samples were centrifuged again at […] for 30 min at rt. Supernatant (200 μl) was transferred to a Corning costar 96 well black polystyrene assay plate (clear bottom). Additionally, a series of standards containing 0.001-10 pg/ml dextran in 50% Tris-Cl/50% absolute methanol (vol/vol) was added to each plate. Absolute concentrations of dextrans were derived from these standard curves. Fluorimetric analysis was performed on a BioTek (Winooski, Vt.) Synergy 4. FITC-dextran was detected at 488/519 (excitation/emission) and Texas Red-dextran was detected at 592/618.

Another data set has as its system HCMECD3 cells. Nature of the data set: cAMP levels in human brain endothelial cells (cAMP Screen kit). The data set is classed as cell-based. Particulars: 15 minutes. How it is done:
[…]3 cells were grown to confluencey on 24 well plates. As adenosine receptor (“AR”) stimulation is known to influence cAMP levels, cells were treated with or without various concentrations of NECA (general AR agonist), CCPA (A1 AR agonist), CGS 21860 (A2A AR agonist), DMSO vehicle, or Forksolin (induces cAMP). After 15 minutes, lysis buffer was added and the cells were frozen at -80 C to stop the reaction. Duplicate samples were used for each condition. cAMP levels were assayed using a cAMP Screen kit (Applied Biosystems, Foster City, Calif.).

In a further data set the test system is Bend.3 cells. Nature of the data set: F-actin (phalloidin) staining of endothelial cells. Particulars: BECs, 1 μM, 3 or 30 min, vs vehicle. The data set is classed as cell-based, mouse. The procedure:
Bend.3 cells were grown (as described above) on circular cover slips in 24-well plates. Cells were treated for 3 or 30 min with 1 μM CCPA, 1 μM […], DMSO or media alone. Cover slips were washed with PBS, fixed in 4% paraformaldahyde, washed again in PBS and then permeabilized with 0.5% TritonX-100 in PBS. After washing in PBS/1% BSA, cover slips were blocked with 1% BSA then stained with Phallodin-Alexa 568. Cover slips were washed and mounted on slides with ProlongGold containing DAPI (Invitrogen). Images were obtained on an Olympus BX51 fluorescent microscope.

A further data set relates to hCMEC/D3 cells. Description: Jurkat cell migration across hCMEC/D3 transwell in vitro BBB. The format is cell-based, human. Particulars: 24 hours. The procedure:
hCMEC/D3 cells were seeded onto Transwell and allowed to grow to confluencey. 2×10^6 Jurkat cells were added to the upper chamber with or without NECA (general adenosine receptor [AR] agonist), CCPA (A1 AR agonist), CGS 21860 (A2A AR agonist), or DMSO vehicle. After 24 hours, migrated cells in the lower chamber were counted. Values are relative to the number of cells that migrate through non-[…]3 seeded transwells.

The subject of the next data set is Z310 cells. Nature of the data set: Jurkat cell migration across Z310 choroid plexus cell transwell. The format is cell-based, murine. The following applies: 24 hours, n=1. The procedure: To test the hypothesis, Transwell membranes were seeded with Z310 cells and allowed to grow to confluencey. 2×10^6 Jurkat cells were added to the upper chamber with or with out NECA (n=1, general AR agonist), CCPA (n=1, A1 AR agonist), CGS 21860 (n=1, A2A AR agonist), or DMSO vehicle(n=1). After 24 hours, migrated cells in the lower chamber were counted. Values are relative to the number of cells that migrate through non-Z310 seeded transwells and the results are shown in FIG. 12.

The conditions of data set [1]: Klabunde 1983; cited from earlier work.

Turning to `Cn1c(=O)c2c(ncn2C)n(C)c1=O` [caffeine], the EAE development entry with EAE (cd73−/− mice, caffeine 0.6 g/L in drinking water) was “did not develop EAE”; in the data set on EAE (wild type mice, caffeine 0.6 g/L in drinking water from 1 day prior to and throughout EAE experiment), “dramatically protected against EAE development”.
As for `OC[C@H]1O[C@@H](n2cnc3c(NC4CCCC4)nc(Cl)nc32)[C@H](O)[C@@H]1O` [CCPA, 2-chloro-N^6-cyclopentyladenosine], in the data set with blood brain barrier, the “dextran entry into the CNS” value was “increased dextran entry into the CNS”. Also, the cAMP levels result in the data set on HCMECD3 cells is recorded as “increased cAMP levels”. In addition, the “actinomyosin stress fiber formation” value in the data set on Bend.3 cells is reported as “marked induction of actinomycin stress fibers”. The “lymphocyte (Jurkat) migration across the in vitro BBB” value in the data set on hCMEC/D3 cells is “induced lymphocyte migration at high levels”. Besides, in the data set with Z310 cells, the “lymphocyte (Jurkat) migration across the CP” value is recorded as “induced lymphocyte migration at high levels”.
In the case of `Nc1ncnc2c1ncn2[C@@H]1O[C@H](CO)[C@@H](O)[C@H]1O` [adenosine], the half-life in data set [1] is under 10 s.
Consider `CCNC(=O)[C@H]1O[C@@H](n2cnc3c(N)nc(NCCc4ccc(CCC(=O)O)cc4)nc32)[C@H](O)[C@@H]1O` [CGS 21680, 4-[2-[[6-Amino-9-(N-ethyl-b-D-ribofuranuronamidosyl)-9H-purin-2-yl]amino]ethyl]benzenepropanoic acid], for which the “dextran entry into the CNS” value in the data set on blood brain barrier was “increased dextran entry into the CNS”. The cAMP levels entry with HCMECD3 cells is reported as “slightly increased cAMP levels”. In addition, in the data set with hCMEC/D3 cells, the “lymphocyte (Jurkat) migration across the in vitro BBB” value is “promoted lymphocyte migration across the in vitro BBB when used at a lower concentration”. For the same molecule, the “lymphocyte (Jurkat) migration across the CP” value with Z310 cells is on record as “promoted lymphocyte migration across the CP”.

B1: PEG-ADA: PEGylated adenosine deaminase (protein, UniProt P56658 2-363, looked up)
Adenosine deaminase: AQTPAFNKPKVELHVHLDGAIKPETILYYGRKRGIALPADTPEELQNIIGMDKPLSLPEFLAKFDYYMPAIAGCREAVKRIAYEFVEMKAKDGVVYVEVRYSPHLLANSKVEPIPWNQAEGDLTPDEVVSLVNQGLQEGERDFGVKVRSILCCMRHQPSWSSEVVELCKKYREQTVVAIDLAGDETIEGSSLFPGHVKAYAEAVKSGVHRTVHAGEVGSANVVKEAVDTLKTERLGHGYHTLEDATLYNRLRQENMHFEVCPWSSYLTGAWKPDTEHPVVRFKNDQVNYSLNTDDPLIFKSTLDTDYQMTKNEMGFTEEEFKRLNINAAKSSFLPEDEKKELLDLLYKAYGMPSPASAEQCL
modifications: PEGylated
notes: PEGylated adenosine deaminase
As to B1, the EAE development result with EAE (wild-type mice, 15 units/kg i.p. every 4 days, vs PBS vehicle) is recorded as “inhibits the development of EAE”.
